Laboratory results: ChEMBL document CHEMBL1201862, “PubChem BioAssay data set” (2004)
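Values below derive from 48-hour exposures of cells grown in 96-well plates, with endpoints linearly interpolated between the two concentrations bracketing the appropriate inhibition level. The concentration for 50% growth inhibition is given as GI50.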 Activity calls are given as the source filed them. No stated cut-off is given here; in the data, active = GI50 up to about 1.1 µM and inactive = higher.

What was measured:
Test in all cases: growth of human tumour cells (NCI), 48 h
[1] = tested on: NCI-H522
[2] = tested on: UACC-62
[3] = tested on: MCF7
[4] = tested on: HCT-15
[5] = tested on: TK-10
[6] = tested on: NCI-H460
[7] = tested on: SN12C
[8] = tested on: COLO 205
[9] = tested on: SNB-19
[10] = tested on: M14
[11] = tested on: OVCAR-8
[12] = tested on: HOP-92
[13] = tested on: SR
[14] = tested on: U-251
[15] = tested on: NCI-H226
[16] = tested on: NCI-H23
[17] = tested on: SF-295
[18] = tested on: IGROV-1
[19] = tested on: ACHN
[20] = tested on: A498

Structure (SMILES) | GI50 [1] | GI50 [2] | GI50 [3] | GI50 [4] [µM] | GI50 [5] | GI50 [6] | GI50 [7] | GI50 [8] | GI50 [9] | GI50 [10] | GI50 [11] | GI50 [12] | GI50 [13] | GI50 [14] | GI50 [15] | GI50 [16] | GI50 [17] | GI50 [18] | GI50 [19] | GI50 [20]
CCOC(=O)C1=C(C)N(Cc2ccccc2)C2(O)C(OC)CC(=O)C3C(=O)N(c4ccccc4)C(=O)C132 (configuration not stated) | 5.98 µM (inactive) | 5.66 µM (inactive) | 3.61 µM (inactive) | 5.75 | 22.4 µM (inactive) | 6.98 µM (inactive) | 10.6 µM (inactive) | 7.21 µM (inactive) | 16.3 µM (inactive) | 19.9 µM (inactive) | 5.53 µM (inactive) | 14.2 µM (inactive) | 3.55 µM (inactive) | 6.53 µM (inactive) | 15.1 µM (inactive) | 15.8 µM (inactive) | 15.2 µM (inactive) | 15.7 µM (inactive) | 10.4 µM (inactive) | 21.5 µM (inactive)
CN(C)CCNC(=O)c1cccc2ccc(-c3ccc(O)cc3)nc12 | 1.36 µM (inactive) | 1.39 µM (inactive) | 0.859 µM (active) | 2.75 | 2.94 µM (inactive) | 0.548 µM (active) | 2.16 µM (inactive) | 3.33 µM (inactive) | 1.31 µM (inactive) | 0.664 µM (active) | 1.38 µM (inactive) | 3.03 µM (inactive) | 2.47 µM (inactive) | 2.06 µM (inactive) | 1.93 µM (inactive) | 3.09 µM (inactive) | 2.13 µM (inactive) | 2.47 µM (inactive) | 1.37 µM (inactive) | 2.64 µM (inactive)
CNc1ncnc2c1cnn2CCCCO | > 100 µM (inactive) | > 100 µM (inactive) | > 100 µM (inactive) | > 100 | > 100 µM (inactive) | > 100 µM (inactive) | > 100 µM (inactive) | > 100 µM (inactive) | > 100 µM (inactive) | > 100 µM (inactive) |  | > 100 µM (inactive) | > 100 µM (inactive) | > 100 µM (inactive) | > 100 µM (inactive) | > 100 µM (inactive) | > 100 µM (inactive) | > 100 µM (inactive) | > 100 µM (inactive) | > 100 µM (inactive)
COc1ccc(N2C(=O)[C@H]3[C@H]4CC(C(C)(C)C)CC[C@H]4c4c(n(C)c5ccccc45)[C@H]3C2=O)cc1 (some centres not stated) | > 10 µM (inactive) | 53.5 µM (inactive) | > 46.5 µM (inactive) | 5.62 | > 10 µM (inactive) | > 10 µM (inactive) | > 56.2 µM (inactive) | > 100 µM (inactive) | > 100 µM (inactive) | > 100 µM (inactive) | > 100 µM (inactive) | > 100 µM (inactive) | > 100 µM (inactive) | > 56.2 µM (inactive) | > 100 µM (inactive) | > 100 µM (inactive) | > 100 µM (inactive) | > 100 µM (inactive) | > 100 µM (inactive) | > 46.5 µM (inactive)
Cc1c(CCCl)c(Cl)n2c(nc3ccccc32)c1C#N | 0.432 µM (active) | 1.02 µM (active) | 0.653 µM (active) | 0.644 | 1.61 µM (inactive) | 0.456 µM (active) | 0.423 µM (active) | 0.991 µM (active) | 1.89 µM (inactive) | 1.14 µM (inactive) | 1.25 µM (inactive) | 1.15 µM (inactive) | 0.112 µM (active) | 0.986 µM (active) | 1.38 µM (inactive) | 0.904 µM (active) | 1.31 µM (inactive) | 1.62 µM (inactive) | 0.836 µM (active) | 1.37 µM (inactive)
CCCS(=O)OC1C(C2COC(C)(C)O2)OC2OC(C)(C)OC21 (configuration not stated) | 9.27 µM (inactive) | 12.1 µM (inactive) | 12.4 µM (inactive) | 13.7 | 16.2 µM (inactive) | 22.8 µM (inactive) | 12.5 µM (inactive) | 11.7 µM (inactive) | 15 µM (inactive) | 8.61 µM (inactive) | 10.5 µM (inactive) | 5.87 µM (inactive) | 0.497 µM (active) | 8.26 µM (inactive) | 21.7 µM (inactive) | 7.26 µM (inactive) | 15.1 µM (inactive) | 14.3 µM (inactive) | 13.7 µM (inactive) | 32.1 µM (inactive)
Cc1ccc2c(c1)-c1c(C#N)c(N)nc(-c3ccccc3)c1CCS2(=O)=O | 1.12 µM (inactive) | 3.84 µM (inactive) | 4.48 µM (inactive) | 4.54 | > 100 µM (inactive) | 4.17 µM (inactive) | 17.7 µM (inactive) | 6.03 µM (inactive) | 4.16 µM (inactive) | 4.54 µM (inactive) | 11.7 µM (inactive) | 56.5 µM (inactive) | 0.834 µM (active) | 8.22 µM (inactive) | 5.36 µM (inactive) | 8.65 µM (inactive) | 5.47 µM (inactive) | 5.31 µM (inactive) | 8.53 µM (inactive) | 8.71 µM (inactive)
c1cc(C2=NCCO2)c2ccsc2c1 | > 100 µM (inactive) | > 100 µM (inactive) | > 100 µM (inactive) | > 100 | > 100 µM (inactive) | > 100 µM (inactive) | > 100 µM (inactive) | > 100 µM (inactive) | > 100 µM (inactive) | > 100 µM (inactive) | > 100 µM (inactive) | 41.2 µM (inactive) | > 100 µM (inactive) | > 100 µM (inactive) | > 100 µM (inactive) | > 100 µM (inactive) | > 100 µM (inactive) | > 100 µM (inactive) | > 100 µM (inactive) | > 100 µM (inactive)
COC1(C)CCC(OS(C)(=O)=O)CO1 (configuration not stated) | > 100 µM (inactive) | > 100 µM (inactive) | > 100 µM (inactive) | > 100 | > 100 µM (inactive) | > 100 µM (inactive) | > 100 µM (inactive) | > 100 µM (inactive) | > 100 µM (inactive) | > 100 µM (inactive) | > 100 µM (inactive) | > 100 µM (inactive) | > 100 µM (inactive) | > 100 µM (inactive) | > 100 µM (inactive) | > 100 µM (inactive) | > 100 µM (inactive) | > 100 µM (inactive) | > 100 µM (inactive) | > 100 µM (inactive)
CCCCCCCCCCC(O)C1CCC(C2CCC(C(O)CCCCC(O)CCCCCC(O)CC3=CC(C)OC3=O)O2)O1 (configuration not stated) | 19.1 µM (inactive) | 1.2 µM (inactive) | 1.18 µM (inactive) | > 25 | > 25 µM (inactive) | 6.93 µM (inactive) | 9.48 µM (inactive) | > 25 µM (inactive) | > 25 µM (inactive) | > 25 µM (inactive) | 4.51 µM (inactive) | > 25 µM (inactive) | 0.0218 µM (active) | > 25 µM (inactive) | 3.82 µM (inactive) |  | 19.9 µM (inactive) | 3.72 µM (inactive) | > 25 µM (inactive) | > 25 µM (inactive)
CN(C)c1nc(N(C)C)nc(N(C)C)n1 [ALTRETAMINE] | 141 µM (inactive) | > 150 µM (inactive) | > 150 µM (inactive) | > 122 | > 150 µM (inactive) | > 124 µM (inactive) | > 150 µM (inactive) | > 148 µM (inactive) | > 144 µM (inactive) | > 150 µM (inactive) | > 150 µM (inactive) | 147 µM (inactive) | > 150 µM (inactive) | > 150 µM (inactive) | > 150 µM (inactive) | > 143 µM (inactive) | > 150 µM (inactive) | > 123 µM (inactive) | > 150 µM (inactive) | > 148 µM (inactive)
O=c1[nH]nc(-c2ccccc2)n1-n1cnnc1 | > 100 µM (inactive) | > 100 µM (inactive) | > 100 µM (inactive) | > 100 | > 100 µM (inactive) | > 100 µM (inactive) | > 100 µM (inactive) | > 100 µM (inactive) | > 100 µM (inactive) | > 100 µM (inactive) | > 100 µM (inactive) | > 100 µM (inactive) | > 100 µM (inactive) | > 100 µM (inactive) | > 100 µM (inactive) | > 100 µM (inactive) | > 100 µM (inactive) | > 100 µM (inactive) | > 100 µM (inactive) | > 100 µM (inactive)
COC(=O)/C=C\n1c(C)cc(=O)[nH]c1=O | > 100 µM (inactive) | > 100 µM (inactive) | 17.1 µM (inactive) | > 100 | > 100 µM (inactive) | > 100 µM (inactive) | > 100 µM (inactive) | > 100 µM (inactive) | > 100 µM (inactive) | > 100 µM (inactive) | > 100 µM (inactive) | > 100 µM (inactive) | > 100 µM (inactive) | > 100 µM (inactive) | > 100 µM (inactive) | > 100 µM (inactive) | > 100 µM (inactive) | > 100 µM (inactive) | > 100 µM (inactive) | > 100 µM (inactive)
N#Cc1c(N)c2c(c(-c3ccccc3)c1-c1ccccc1)C(=O)N(Nc1ccccc1)C2=O | 58.6 µM (inactive) | 49.9 µM (inactive) | 47.8 µM (inactive) | 45.7 | 42.1 µM (inactive) | 34 µM (inactive) | 30.7 µM (inactive) | 20.7 µM (inactive) | 45.8 µM (inactive) | 22.2 µM (inactive) | 78.3 µM (inactive) | 48.1 µM (inactive) | 36.2 µM (inactive) | 93.5 µM (inactive) | 37.3 µM (inactive) |  | 41.5 µM (inactive) | 34.8 µM (inactive) | 59.2 µM (inactive) | 28.4 µM (inactive)
